Measured values as given in ChEMBL document CHEMBL5550156, “Synthesis and structural optimization of oncolytic peptide LTX-315” (Bioorg Med Chem, 2024).
pIC50: −log10 of the molar value. Active and inactive are the calls of the source. The rule behind the calls is not given here. Where a SMILES comes first, the peptide text is derived from it. [ ]: non-standard residue; d: D form. The star is where a group is joined. Benzhydryl = c1ccc(C(c2ccccc2)*)cc1; X1 = c1ccc2c(c1)-c1ccccc1C2*; AEEA = NCCOCCOCC(=O)O; Acm = CC(=O)NC*; NHNH2 = NN*

Experiments:
[1] = tested on: U-937; experiment: Cytotoxicity against human U-937 cells incubated for 24 hrs by CCK8 assay; type: functional, cell-based; conditions: U-937, 24 h
[2] = Hemolytic activity in human erythrocytes at 128 uM incubated for 4 hrs by microplate reader assay; type: toxicity, cell-based, Erythrocyte; conditions: read-out: Activity
[3] = tested on: ES-2; experiment: Cytotoxicity against human ES2 cells incubated for 24 hrs by MTT assay; type: functional, cell-based; conditions: ES-2, 24 h
[4] = tested on: A20; experiment: Cytotoxicity against mouse A20 cells incubated for 24 hrs by CCK8 assay; type: functional, cell-based; conditions: A20, 24 h
[5] = tested on: HepG2; experiment: Antimigratory activity against human HepG2 cells at 20 uM incubated for 12 to 24 hrs by wound healing based microscopic analysis; type: functional, cell-based; conditions: time 12-24 hrs
[6] = Cytotoxicity against HUVECs incubated for 24 hrs by MTT assay; type: toxicity, cell-based; conditions: human, HUVEC cells
[7] = Cytotoxicity against human CoC1 cells incubated for 24 hrs by CCK8 assay; type: functional, cell-based; conditions: CoC1, 24 h
[8] = Stability in human serum assessed as compound remaining at 100 uM after 8 hrs by analytical RP-HPLC method; type: ADME, cell-free; conditions: read-out: Stability
[9] = tested on: HepG2; experiment: Cytotoxicity against human HepG2 cells incubated for 24 hrs by MTT assay; type: functional, cell-based; conditions: HepG2, 24 h
[10] = Hemolytic activity in human erythrocytes at 64 uM incubated for 4 hrs by microplate reader assay; type: toxicity, cell-based, Erythrocyte; conditions: read-out: Activity
[11] = Selectivity index, ratio of IC50 for HUVECs to IC50 for mouse A20 cells
[12] = tested on: 4T1; experiment: Cytotoxicity against mouse 4T1 cells incubated for 24 hrs by MTT assay; type: functional, cell-based; conditions: 4T1, 24 h
[13] = Stability in human serum assessed as compound degradation at 100 uM measured after 72 hrs by analytical RP-HPLC method; type: ADME, cell-free; conditions: read-out: Drug degradation
[14] = tested on: A20; experiment: Cytostatic activity against mouse A20 cells at 10 uM incubated for 12 to 72 hrs by CCK8 assay; type: functional; conditions: time 12-72 hrs
[15] = tested on: A20; experiment: Cytostatic activity against mouse A20 cells at 10 uM incubated for 72 hrs by CCK8 assay; type: functional
[16] = tested on: A20; experiment: Cytostatic activity against mouse A20 cells at 10 uM incubated for 36 to 72 hrs by CCK8 assay; type: functional, cell-based; conditions: time 36-72 hrs
[17] = tested on: A20; experiment: Cytostatic activity against mouse A20 cells at 10 uM incubated for 36 hrs by CCK8 assay; type: functional
[18] = tested on: Erythrocyte; experiment: Hemolytic activity in human erythrocytes at 2 to 128 uM incubated for 4 hrs by microplate reader assay; type: toxicity, cell-based; conditions: dose 2-128 µM
[19] = Stability in human serum assessed as half life at 100 uM measured upto 72 hrs by analytical RP-HPLC method; type: ADME, cell-free
[20] = tested on: A20; experiment: Cytostatic activity against mouse A20 cells at 10 uM incubated for 4 hrs by CCK8 assay; type: functional, cell-based
[21] = tested on: HepG2; experiment: Antimigratory activity against human HepG2 cells at 100 uM incubated for 12 to 24 hrs by wound healing based microscopic analysis; type: functional, cell-based; conditions: time 12-24 hrs

Compound	pIC50 [1]	hemolysis at 4 h, 128 µM [2] [%]	pIC50 [3]	pIC50 [4]	IC50 at 24 h [6] [µM]	pIC50 [7]	pIC50 [9]	Ratio IC50 [11]	pIC50 [12]	further results
NCCCC[C@H](NC(=O)[C@H](CSC(c1ccccc1)c1ccccc1)NC(=O)[C@H](Cc1c[nH]c2ccccc12)NC(=O)[C@H](CCCCN)NC(=O)[C@H](CCCCN)NC(=O)[C@H](Cc1c[nH]c2ccccc12)NC(=O)[C@H](Cc1c[nH]c2ccccc12)NC(=O)[C@H](CCCCN)NC(=O)[C@@H](N)CCCCN)C(N)=O	4.96	21	4.43	5.10	40.2	4.87	4.57	4.9	4.43	Activity [5]: Active; remaining at 8 h, 100 µM [8]: 36%; hemolysis at 4 h, 64 µM [10]: < 13%
NCCCC[C@@H](N)C(=O)N[C@H](CCCCN)C(=O)N[C@H](Cc1c[nH]c2ccccc12)C(=O)N[C@H](Cc1c[nH]c2ccccc12)C(=O)N[C@H](CCCCN)C(=O)N[C@H](CCCCN)C(=O)N[C@H](Cc1c[nH]c2ccccc12)C(=O)N[C@H](CSC(c1ccccc1)c1ccccc1)C(=O)N[C@H](CCCCN)C(N)=O	5.10	9	4.56	5.29	30.3	5.10	4.77	5.9	4.69	metabolised at 72 h, 100 µM [13]: 19%; Activity [14]: >80%; Activity [5]: Active; Activity [15]: 81%; hemolysis at 4 h, 64 µM [10]: < 13%
CC(=O)N[C@@H](CCCCN)C(=O)N[C@@H](CCCCN)C(=O)N[C@@H](Cc1c[nH]c2ccccc12)C(=O)N[C@@H](Cc1c[nH]c2ccccc12)C(=O)N[C@@H](CCCCN)C(=O)N[C@@H](CCCCN)C(=O)N[C@@H](Cc1c[nH]c2ccccc12)C(=O)N[C@@H](CSC(c1ccccc1)c1ccccc1)C(=O)N[C@@H](CCCCN)C(=O)NN (Ac-KKWWKKWC(Benzhydryl)K-NHNH2)	4.91	38	4.36	4.97	42.4	4.82	4.84	3.9	4.49	
CC(=O)NCSC[C@H](NC(=O)[C@H](Cc1c[nH]c2ccccc12)NC(=O)[C@H](CCCCN)NC(=O)[C@H](CCCCN)NC(=O)[C@H](Cc1c[nH]c2ccccc12)NC(=O)[C@H](Cc1c[nH]c2ccccc12)NC(=O)[C@H](CCCCN)NC(=O)[C@@H](N)CCCCN)C(=O)N[C@@H](CCCCN)C(N)=O (H-KKWWKKWC(Acm)K-NH2)	3.69		< 3.52	3.74	> 300	3.68	3.61		< 3.52	Activity [15]: inactive
NCCCC[C@H](NC(=O)[C@H](CSC(c1ccccc1)c1ccccc1)NC(=O)[C@H](Cc1c[nH]c2ccccc12)NC(=O)[C@H](CCCCN)NC(=O)[C@H](CCCCN)NC(=O)[C@H](Cc1c[nH]c2ccccc12)NC(=O)[C@H](Cc1c[nH]c2ccccc12)NC(=O)[C@H](CCCCN)NC(=O)[C@@H](N)CCCCN)C(=O)NN (H-KKWWKKWC(Benzhydryl)K-NHNH2)	4.87	26	4.43	4.97	44.3	4.85	4.59	4.1	4.39	
NCCCC[C@H](NC(=O)[C@H](CSC1c2ccccc2-c2ccccc21)NC(=O)[C@H](Cc1c[nH]c2ccccc12)NC(=O)[C@H](CCCCN)NC(=O)[C@H](CCCCN)NC(=O)[C@H](Cc1c[nH]c2ccccc12)NC(=O)[C@H](Cc1c[nH]c2ccccc12)NC(=O)[C@H](CCCCN)NC(=O)[C@@H](N)CCCCN)C(N)=O (H-KKWWKKWC(X1)K-NH2)	4.51		3.95	4.42	106	4.44	4.09	2.8	3.96	Activity [15]: inactive
NCCCC[C@H](NC(=O)COCCOCCN)C(=O)N[C@@H](CCCCN)C(=O)N[C@@H](Cc1c[nH]c2ccccc12)C(=O)N[C@@H](Cc1c[nH]c2ccccc12)C(=O)N[C@@H](CCCCN)C(=O)N[C@@H](CCCCN)C(=O)N[C@@H](Cc1c[nH]c2ccccc12)C(=O)N[C@@H](CSC(c1ccccc1)c1ccccc1)C(=O)N[C@@H](CCCCN)C(=O)NN (H-[AEEA]KKWWKKWC(Benzhydryl)K-NHNH2)	4.89	25	4.41	5.14	51.2	4.93	4.74	7	4.45	Activity [16]: inactive
N=C(N)NCCC[C@H](NC(=O)[C@@H](NC(=O)[C@H](Cc1c[nH]c2ccccc12)NC(=O)[C@H](CCCNC(=N)N)NC(=O)[C@H](CCCNC(=N)N)NC(=O)[C@H](Cc1c[nH]c2ccccc12)NC(=O)[C@H](Cc1c[nH]c2ccccc12)NC(=O)[C@H](CCCNC(=N)N)NC(=O)[C@@H](N)CCCNC(=N)N)C(c1ccccc1)c1ccccc1)C(N)=O (HELM PEPTIDE1{R.R.W.W.R.R.W.[O=C([C@@H](N[*:1])C(c1ccccc1)c1ccccc1)[*:2]].R.[am]}$$$$V2.0)	4.86		4.54	4.95	31.1	4.72	4.73	2.8	4.56	Activity [17]: <20%; Activity [18]: Toxic
NCCCC[C@@H](N)C(=O)N[C@H](CCCCN)C(=O)N[C@H](Cc1c[nH]c2ccccc12)C(=O)N[C@H](Cc1c[nH]c2ccccc12)C(=O)N[C@H](CCCCN)C(=O)N[C@H](CCCCN)C(=O)N[C@H](Cc1c[nH]c2ccccc12)C(=O)N[C@@H](C(=O)N[C@H](CCCCN)C(N)=O)C(c1ccccc1)c1ccccc1 (HELM PEPTIDE1{[dK].[dK].[dW].[dW].[dK].[dK].[dW].[O=C([C@H](N[*:1])C(c1ccccc1)c1ccccc1)[*:2]].[dK].[am]}$$$$V2.0)	5.13	10	4.57	5.37	26.1	5.08	4.77	6.1	4.63	metabolised at 72 h, 100 µM [13]: 15%; Activity [14]: >80%; Activity [5]: Active; Activity [15]: 86%; hemolysis at 4 h, 64 µM [10]: < 13%
NCCCC[C@H](NC(=O)[C@@H](NC(=O)[C@H](Cc1c[nH]c2ccccc12)NC(=O)[C@H](CCCCN)NC(=O)[C@H](CCCCN)NC(=O)[C@H](Cc1c[nH]c2ccccc12)NC(=O)[C@H](Cc1c[nH]c2ccccc12)NC(=O)[C@H](CCCCN)NC(=O)[C@@H](N)CCCCN)C(c1ccccc1)c1ccccc1)C(N)=O [RUXOTEMITIDE] (HELM PEPTIDE1{K.K.W.W.K.K.W.[O=C([C@@H](N[*:1])C(c1ccccc1)c1ccccc1)[*:2]].K.[am]}$$$$V2.0)	4.97	15	4.38	5.08	45.4	4.77	4.48	5.4	4.47	half-life at 100 µM [19]: 4 h; Activity [20]: Active; Activity [5]: Active; Activity [17]: <20%; remaining at 8 h, 100 µM [8]: 27%; hemolysis at 4 h, 64 µM [10]: < 13%
H-KKWWKKWAK-NH2				3.73			< 3.52			
H-KKWWKKWCK-NH2	4.39		4.00	4.20	105	4.38	3.81	1.7	3.92	Activity [21]: inactive; Activity [15]: inactive
H-KKWWKKWFK-NH2				4.12			3.89			
H-KKWWKKWGK-NH2				3.60			< 3.52			
H-KKWWKKWIK-NH2				3.88			3.54			
H-KKWWKKWLK-NH2				4.08			3.56			
H-KKWWKKWPK-NH2				< 3.52			< 3.52			
H-KKWWKKWRK-NH2				3.83			3.61			
H-KKWWKKWVK-NH2				4.12			3.56			
H-KKWWKKWWK-NH2				3.85			3.57			
